# Experimental data taken from patent US6576811B1, “Transgenic rat with human normal type c-Ha-ras gene” (National Cancer Center Research Institute, priority 1998, dated 2003).
# Values joined by “and” are separate entries in the source; they are usually repeats but may differ in a detail not shown here. Identical values can stand only once. Marks after values point to notes of the source that are not given here.
# Tests used:
# Hras128 rats [1] = assay: BBN-induced urinary bladder tumors in Hras128 rats; assay type: in vivo, rat
# Method: (§1) In the same manner as in Example 2, 0.05% N-butyl-N-(4-hydroxybutyl)nitrosoamine (BBN) was administered mixed with drinking water to Hras128 rats and the wild type rats for 10 weeks, to induce bladder tumors. The incidences of bladder tumors (papillomas and carcinomas combined) are shown in Table 11, the mutation of the human c-Ha-ras proto-oncogene codons 12 and 61 and endogeneous rat H-ras shown in Table 12.
# wild type rats = assay: BBN-induced urinary bladder tumors in wild type rats; assay type: in vivo, rat; settings: Wild female
# Method: as §1
# [2] = tested on: human c-Ha-ras proto-oncogene (transgene); assay: Mutation analysis (RFLP, PCR-SSCP) of the transgene in carcinogen-induced tumors
# Description: Single-stranded DNA confirmation polymorphism (SSCP) analysis is able to be performed according to the followings; T. Sekiya. Protein, Nucleic Acid, Enzyme, vol.
# Possible mutations in exons 1 to 4 of the human Ha-ras proto-oncogene and exons 1 and 2 of the endogenous gene were examined by PCR-SSCP analysis.
# RFLP analysis is able to perform according to the followings; Nagase, et al., Protein, Nucleic Acid, Enzyme, vol.
# [3] = tested on: endogenous Ha-ras gene (rat); assay: Mutation analysis (PCR-SSCP) of the endogenous Ha-ras gene in carcinogen-induced tumors
# Description: Single-stranded DNA confirmation polymorphism (SSCP) analysis is able to be performed according to the followings; T. Sekiya. Protein, Nucleic Acid, Enzyme, vol. 41, No. 5, 539, 1996.
# Possible mutations in exons 1 to 4 of the human Ha-ras proto-oncogene and exons 1 and 2 of the endogenous gene were examined by PCR-SSCP analysis. Using human or rat specific primers, only two bands appeared on the gals. With common primers (cHras21F and cHras21R) for Ha-ras exon 2 of both man and rats, four bands were detected. Human or rat specific bands were identified by signals from normal DNA of the transgenic and non-transgenic rats. DNA from T24 having a mutation in human Ha-ras of codon 12, GGC to GTC and that from pSK2 having a mutation in the codon 61, CAG to CTG, gave clearly mobility shifted bands in the assays (FIG. 4). However, a GGC to GAC mutation of the transgene enriched by PCR after RFLP analysis as described below, which was frequently observed in tumors induced by MNU in human Ha-ras proto-oncogene transgenic mice, could not be detected by SSCP -PCR analysis. In 44 tumors from Hras128 transgenic rats treated with MNU, mutations were not detected in exons 1 to 4 of the introduced human and endogenous c-Ha-ras genes under any of four SSCP conditions (at 4 or 20° C., with or without 5% glycerol) (Table 1). In contrast, a relatively high frequency (6 of 21 tumors of non-transgenic rats (28.6%) of GGA to GAA mutations in codon 12 of the endogenous Ha-ras gene was detected in mammary carcinomas of non-transgenic using PCR-SSCP analysis followed by direct sequencing (Table 1).
# [4] = tested on: wild type rats (non Tg rats); assay: DMBA-induced mammary carcinomas in wild type rats; assay type: in vivo, rat
# Description: (§4) Well established mammary carcinogens, such as 7,14-dimethylbenz[a]anthracene (DMBA) and 2-amino-1-methyl-6-phenylimidazo[4,5-]pyridlne (PhIP) were given to the Hras128 rats in the same manner as in previous reports.
# (§5) The number of tumor indicates number of lesions per rat and the sizes of the tumors indicates their diameter (mm).
# Hras128 rats [5] = assay: DMBA-induced mammary carcinomas in Hras128 rats
# Description: as §4, §5
# Hras128 rats [6] = assay: ENU-induced transplacental carcinogenesis in Hras128 (Tg 128) rats; assay type: in vivo, rat; settings: for No. of tumor bearing rat/total No. of rat / Tumor incidence, CNS / Tumor incidence, kidney / Tumor incidence, mammary gland / Tumor incidence, papilloma / Tumor incidence, spleen: transplacental ENU
# Method: (§2) The effects of transplacental administration of carcinogenic substances were examined in offsprings of females and males of Hras128 rats and wild rats.
# (§3) Transplacental administration of ethylnitrosourea (ENU) was performed and incidence of tumors in many organs of the bearing rats are shown in Table 14.
# wild rats = assay: ENU-induced transplacental carcinogenesis in wild rats; assay type: in vivo, rat
# Method: as §2, §3
# [7] = Hras128 female, bladder papillomas and carcinomas combined, 20 rats
# [8] = bladder papillomas and carcinomas combined, 15 rats
# [9] = BBN-induced bladder tumors, Hras128, 27 tumors examined
# [10] = BBN-induced bladder tumors, Wild, 17 tumors examined
# [11] = DMBA-induced mammary carcinomas, Hras128, 20 tumors examined
# [12] = DMBA-induced mammary carcinomas, Hras128, 20 tumors examined, RFLP
# [13] = DMBA-induced mammary carcinomas, Wild, 7 tumors examined
# [14] = Hras128, mammary carcinomas, 14 rats
compound,measurement,setting,value
"CCCCN(CCCCO)N=O [BBN, N-butyl-N-(4-hydroxybutyl)nitrosoamine]",Incidence of carcinomas (fraction),"Hras128 rats [1]; Hras128 female, bladder",11/14
same,No. of tumor-bearing rats,"Hras128 rats [1]; Hras128 female, bladder papillomas and carcinomas combined, 0.05% BBN in drinking water 10 weeks, 20 rats",19
same,No. of tumor-bearing rats (%),Hras128 rats [1]; [7],95%
same,No. of tumors/rat,Hras128 rats [1]; [7],13.2 ± 6.8^b
same,Incidence of carcinomas (figure in parentheses),"Hras128 rats [1]; Hras128 female, bladder, percent sign not given",35.3
same,Sensitivity of the Hras128 rat to BBN carcinogenesis in the bladder,"Hras128 rats [1]; rat, in vivo",slightly elevated sensitivity
same,Incidence of carcinomas (fraction),wild type rats; bladder,4/13
same,No. of tumor-bearing rats,"wild type rats; bladder papillomas and carcinomas combined, 0.05% BBN in drinking water 10 weeks, 15 rats",15
same,No. of tumor-bearing rats (%),wild type rats; [8],100%
same,No. of tumors/rat,wild type rats; [8],7.1 ± 5.2
same,Incidence of carcinomas (figure in parentheses),"wild type rats; bladder, percent sign not given",30.8
same,"Transgene codon 12 mutations, %",[2]; [9],7.4%
same,"Transgene codon 61 mutations, number of tumors",[2]; [9],0
same,"Transgene mutations total, %",[2]; [9],7.4%
same,"Transgene mutations total, number of tumors",[2]; [9],2
same,"Transgene codon 12 mutations, number of tumors","[2]; BBN-induced bladder tumors, Hras128, 27 tumors examined, GGC to GAC",2/27 and 2
same,"Endogenous (rat) exon 1 mutations, number of tumors",[3]; [9],0
same,"Endogenous (rat) exon 2 mutations, number of tumors",[3]; [9],0
same,"Endogenous (rat) exon 1 mutations, %",[3]; [10],5.9%
same,"Endogenous (rat) exon 2 mutations, number of tumors",[3]; [10],0
same,"Endogenous (rat) exon 1 mutations, number of tumors","[3]; BBN-induced bladder tumors, Wild, 17 tumors examined, GGA to GAA",1/17 and 1
Cc1c2ccccc2c(C)c2c1ccc1ccccc12 [DMBA],Tumor size (diameter),[4],13.4 ± 8.20 mm
same,No. of tumor-bearing rats,[4]; 12 rats,4
same,No. of tumor-bearing rats (%),[4]; 12 rats,33.3%
same,No. of tumors/rat,[4]; 12 rats,0.83 ± 1.75
same,"Transgene codon 12 mutations, %",[2]; [11],30%
same,"Transgene codon 61 mutations, %",[2]; [11],35%
same,"Transgene mutations total, %",[2]; [11],60%
same,"Transgene mutations total, number of tumors",[2]; [11],12
same,"Transgene codon 12 mutations, number of tumors",[2]; [12],6/20 and 6
same,"Transgene codon 61 mutations, number of tumors",[2]; [12],7/20 and 7
same,"Endogenous (rat) exon 1 mutations, number of tumors",[3]; [11],0
same,"Endogenous (rat) exon 2 mutations, number of tumors",[3]; [11],0
same,"Endogenous (rat) exon 1 mutations, number of tumors",[3]; [13],0
same,"Endogenous (rat) exon 2 mutations, number of tumors",[3]; [13],0
same,Tumor size (diameter),"Hras128 rats [5]; Hras128, mammary carcinomas",12.6 ± 9.22 mm
same,No. of tumor-bearing rats,Hras128 rats [5]; [14],13
same,No. of tumor-bearing rats (%),Hras128 rats [5]; [14],92.9%
same,No. of tumors/rat,Hras128 rats [5]; [14],9.39 ± 9.79^b
same,Sensitivity of the Hras128 rat to DMBA,Hras128 rats [5]; mammary carcinogenesis,very sensitive
"CCN(N=O)C(N)=O [ENU, ethylnitrosourea]",No. of tumor bearing rat/total No. of rat,Hras128 rats [6]; Tg 128 Female offspring,6/9
same,"Tumor incidence, CNS",Hras128 rats [6]; Tg 128 Female offspring,3/9
same,"Tumor incidence, kidney",Hras128 rats [6]; Tg 128 Female offspring,2/9
same,"Tumor incidence, mammary gland",Hras128 rats [6]; Tg 128 Female offspring,5/9
same,"Tumor incidence, papilloma",Hras128 rats [6]; Tg 128 Female offspring,0
same,"Tumor incidence, spleen",Hras128 rats [6]; Tg 128 Female offspring,2/9
same,No. of tumor bearing rat/total No. of rat,Hras128 rats [6]; Tg 128 Male offspring,8/15
same,"Tumor incidence, CNS",Hras128 rats [6]; Tg 128 Male offspring,6/15
same,"Tumor incidence, kidney",Hras128 rats [6]; Tg 128 Male offspring,6/15
same,"Tumor incidence, mammary gland",Hras128 rats [6]; Tg 128 Male offspring,4/15
same,"Tumor incidence, papilloma",Hras128 rats [6]; Tg 128 Male offspring,3/15
same,"Tumor incidence, spleen",Hras128 rats [6]; Tg 128 Male offspring,0/15
same,"Occurrence of tumors in the central nervous system, kidney, skin, etc. after trans-placental administration","Hras128 rats [6]; transgenic rat, within a short period",significantly increases
same,No. of tumor bearing rat/total No. of rat,wild rats; Wild 128 Female offspring,0/7
same,"Tumor incidence, CNS",wild rats; Wild 128 Female offspring,0
same,"Tumor incidence, kidney",wild rats; Wild 128 Female offspring,0
same,"Tumor incidence, mammary gland",wild rats; Wild 128 Female offspring,0
same,"Tumor incidence, papilloma",wild rats; Wild 128 Female offspring,0
same,"Tumor incidence, spleen",wild rats; Wild 128 Female offspring,0
same,No. of tumor bearing rat/total No. of rat,wild rats; Wild 128 Male offspring,2/6
same,"Tumor incidence, CNS",wild rats; Wild 128 Male offspring,2/6
same,"Tumor incidence, kidney",wild rats; Wild 128 Male offspring,0
same,"Tumor incidence, mammary gland",wild rats; Wild 128 Male offspring,0
same,"Tumor incidence, papilloma",wild rats; Wild 128 Male offspring,0
same,"Tumor incidence, spleen",wild rats; Wild 128 Male offspring,0
